Data set [1] concerns Mycobacterium tuberculosis H37Rv strain. Nature of the data set: Alamar blue (MABA) test, MIC on Mycobacterium tuberculosis H37Rv. The note with it: read-out: fluorimetric MIC (minimum inhibitory concentration) with respect to the growth of Mycobacterium tuberculosis. The class given is cell-based. For orientation: Resazurin is reduced to fluorescent resorufin, in cell work by metabolically active cells.

[2] abbreviates: in vitro, Alamar blue (MABA), H37Rv strain, fluorescence reading.

In patent US8993561B2, “Nitrobenzothiazole derivatives, preparation thereof and therapeutic applications thereof” (Sanofi, priority 2010, dated 2015) one finds melting point and MIC data, which are given here for 20 compounds.

Each structure is given as a SMILES string. Values after ≈ are worked out from the molar mass of the structure shown. Where two headings read alike, the source gives them in different places.

Regarding `O=C(NCCc1ccc(Cl)cc1)c1nc2cc(C(F)(F)F)cc([N+](=O)[O-])c2s1`, the melting point is 140 °C.
Compound `O=C(NCCC1CCOCC1)c1nc2cc(C(F)(F)F)cc([N+](=O)[O-])c2s1` [Compound 2, 7-nitro-N-[2-(tetrahydro-2H-pyran-4-yl)ethyl]-5-(trifluoromethyl)-1,3-benzothiazole-2-carboxamide] showed a melting point of 154 °C. In data set [1] (setting [2]), the MIC is below 0.5 µM.
As to `COc1ccc(CCNC(=O)c2nc3cc(C(F)(F)F)cc([N+](=O)[O-])c3s2)cc1` [Compound 7, N-[2-(4-methoxyphenyl)ethyl]-7-nitro-5-(trifluoromethyl)-1,3-benzothiazole-2-carboxamide], the MIC in data set [1] (setting [2]) is below 0.5 µM.
Regarding `O=C(NCCN1CCc2ccccc2C1)c1nc2cc(C(F)(F)F)cc([N+](=O)[O-])c2s1` [Compound 9, N-[2-(1,2,3,4-tetrahydroisoquinolin-2(1H)-yl)ethyl]-7-nitro-5-(trifluoromethyl)-1,3-benzothiazole-2-carboxamide], the MIC in data set [1] (setting [2]) was below 0.5 µM.
Still for that read-out and setting: for `O=C(NCCc1ccc(F)cc1)c1nc2cc(C(F)(F)F)cc([N+](=O)[O-])c2s1` [Compound 14, N-[2-(4-fluorophenyl)ethyl]-7-nitro-5-(trifluoromethyl)-1,3-benzothiazole-2-carboxamide] the value was below 0.5 µM; for `COc1ccc(CCNC(=O)c2nc3cc(C(F)(F)F)cc([N+](=O)[O-])c3s2)cc1OC` [Compound 15, N-[2-(3,4-dimethoxyphenyl)ethyl]-7-nitro-5-(trifluoromethyl)-1,3-benzothiazole-2-carboxamide], below 0.5 µM.
In the case of `O=C(NCCc1cccc(Cl)c1)c1nc2cc(C(F)(F)F)cc([N+](=O)[O-])c2s1` [Compound 16, N-[2-(3-chlorophenyl)-ethyl]-7-nitro-5-(trifluoromethyl)-1,3-benzothiazole-2-carboxamide], in data set [1] (H37RV), the MIC was below 0.5 µM.
Consider `O=C(NCCc1ccccc1O)c1nc2cc(C(F)(F)F)cc([N+](=O)[O-])c2s1` [Compound 17, N-[2-(2-hydroxyphenyl)ethyl]-7-nitro-5-(trifluoromethyl)-1,3-benzothiazole-2-carboxamide], for which the MIC in data set [1] (H37RV) was below 0.5 µM.
With `O=C(NCCc1ccc(O)cc1)c1nc2cc(C(F)(F)F)cc([N+](=O)[O-])c2s1` [Compound 18, N-[2-(4-hydroxyphenyl)ethyl]-7-nitro-5-(trifluoromethyl)-1,3-benzothiazole-2-carboxamide], the MIC in data set [1] (H37RV) is below 0.5 µM.
Consider `O=C(NCCNc1ccccn1)c1nc2cc(C(F)(F)F)cc([N+](=O)[O-])c2s1` [Compound 21, 7-nitro-N-[2-(pyridin-2-ylamino)ethyl]-5-(trifluoromethyl)-1,3-benzothiazole-2-carboxamide], for which, in data set [1] (setting [2]), the MIC was below 0.5 µM.
On to `O=C(NCCN1CCSCC1)c1nc2cc(C(F)(F)F)cc([N+](=O)[O-])c2s1` [Compound 22, 7-nitro-N-[2-thiomorpholin-4-ylethyl)-5-(trifluoromethyl)-1,3-benzothiazole-2-carboxamide], for which, in data set [1] (setting [2]), the MIC is below 0.5 µM.
The same measure, in the same setting: with `Cc1cccnc1CCNC(=O)c1nc2cc(C(F)(F)F)cc([N+](=O)[O-])c2s1` [Compound 25, N-[2-(3-methylpyridin-2-yl)ethyl]-7-nitro-5-(trifluoromethyl)-1,3-benzothiazole-2-carboxamide] the figure was below 0.5 µM; with `O=C(NCC(c1ccccc1)N1CCOCC1)c1nc2cc(C(F)(F)F)cc([N+](=O)[O-])c2s1` (stereo not drawn) [Compound 26, N-(2-morpholin-4-yl-2-phenylethyl)-7-nitro-5-(trifluoromethyl)-1,3-benzothiazole-2-carboxamide], below 0.5 µM; with `CC1(C)CC(CCNC(=O)c2nc3cc(C(F)(F)F)cc([N+](=O)[O-])c3s2)(c2ccccc2)CCO1` (stereo not drawn) [Compound 27, N-[2-(2,2-dimethyl-4-phenyltetrahydro-2H-pyran-4-yl)ethyl]-7-nitro-5-(trifluoromethyl)-1,3-benzothiazole-2-carboxamide], below 0.5 µM.
With `Cc1nc(CCNC(=O)c2nc3cc(C(F)(F)F)cc([N+](=O)[O-])c3s2)sc1Cl` [Compound 36, N-[2-(5-chloro-4-methyl-1,3-thiazol-2-yl)ethyl]-7-nitro-5-(trifluoromethyl)-1,3-benzothiazole-2-carboxamide], the MIC in data set [1] (setting [2]) was below 0.5 µM.
As to `O=C(NCCc1nc2ccccc2o1)c1nc2cc(C(F)(F)F)cc([N+](=O)[O-])c2s1` [Compound 38, N-[2-(1,3-benzoxazol-2-yl)ethyl]-7-nitro-5-(trifluoromethyl)-1,3-benzothiazole-2-carboxamide], in data set [1] (H37RV), the MIC was below 0.5 µM.
For the compound `CCc1csc(CCNC(=O)c2nc3cc(C(F)(F)F)cc([N+](=O)[O-])c3s2)n1` [Compound 39, N-[2-(4-ethyl-1,3-thiazol-2-yl)ethyl]-7-nitro-5-(trifluoromethyl)-1,3-benzothiazole-2-carboxamide], the MIC in data set [1] (setting [2]) is below 0.5 µM.
The same measure, in the same setting: with `Cc1nc(CCNC(=O)c2nc3cc(C(F)(F)F)cc([N+](=O)[O-])c3s2)sc1C` [Compound 40, N-[2-(4,5-dimethyl-1,3-thiazol-2-yl)ethyl]-7-nitro-5-(trifluoromethyl)-1,3-benzothiazole-2-carboxamide] the figure was below 0.5 µM; with `NNC(=O)c1ccncc1` [isoniazid, reference compound], 0.36 µM (≈ 0.0494 µg/mL).
On to `CO[C@H]1/C=C/O[C@@]2(C)Oc3c(C)c(O)c4c(O)c(c(/C=N/N5CCN(C)CC5)c(O)c4c3C2=O)NC(=O)/C(C)=C\C=C\[C@H](C)[C@H](O)[C@@H](C)[C@@H](O)[C@@H](C)[C@H](OC(C)=O)[C@@H]1C` [rifampicin, reference compound], for which, in data set [1] (setting [2]), the MIC was determined as 0.12 µM (≈ 0.0988 µg/mL).

As usually defined, the melting point is the temperature, or range, at which the solid turns liquid.
